pIC50: −log10 of the molar value. ≈ marks a conversion by molar mass, not a printed value.
Assays:
[1] = molecular target: Bacillus anthracis DHFR (Bacillus anthracis, UniProt Q81R22); assay: biochemical
[2] = molecular target: T1, human DHFR (Homo sapiens, UniProt P00374); assay: biochemical
T1 sequence (P00374 1-187): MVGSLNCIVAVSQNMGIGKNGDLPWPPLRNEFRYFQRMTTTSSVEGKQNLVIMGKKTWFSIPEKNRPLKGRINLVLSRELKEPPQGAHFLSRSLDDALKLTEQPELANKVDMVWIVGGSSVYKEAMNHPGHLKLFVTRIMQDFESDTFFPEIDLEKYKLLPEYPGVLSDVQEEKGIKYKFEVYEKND

[3] = system: Bacillus anthracis Sterne; assay: microbe, parasite or virus in culture; assay type: cell-based; conditions: 16 h, read-out: MIC B. anthracis (ug/ml)

Chain of Bacillus anthracis DHFR (Q81R22 1-162): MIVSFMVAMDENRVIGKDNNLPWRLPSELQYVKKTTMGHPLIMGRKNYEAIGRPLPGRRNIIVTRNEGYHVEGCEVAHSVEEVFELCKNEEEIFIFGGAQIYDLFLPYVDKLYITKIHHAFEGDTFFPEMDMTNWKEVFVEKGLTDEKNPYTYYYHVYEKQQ

SMILES | pIC50 [1] | pIC50 [2] | MIC [3] [µg/mL]
CCCC1c2ccccc2C=NN1C(=O)/C=C/c1cc(Cc2cnc(N)nc2N)cc(OC)c1OC (stereo not shown) | 7.27 | 3.96 | 13 (≈ 26.7 µM)
COc1cc(Cc2cnc(N)nc2N)cc(/C=C/C(=O)N2N=Cc3ccccc3C2c2ccccc2)c1OC.CS(=O)(=O)O (stereo not shown) | 7.34 | – | 26
CCCCC1c2ccccc2C=NN1C(=O)/C=C/c1cc(Cc2cnc(N)nc2N)cc(OC)c1OC (stereo not shown) | 6.77 | – | ≤ 13
COc1cc(Cc2cnc(N)nc2N)cc(/C=C/C(=O)N2N=Cc3ccccc3C2C2CCCCC2)c1OC (stereo not shown) | 6.59 | – | ≤ 13
COc1cc(Cc2cnc(N)nc2N)cc(/C=C/C(=O)N2N=Cc3ccccc3C2C2CCCC2)c1OC (stereo not shown) | 6.70 | < 4.68 | ≤ 26
COc1cc(Cc2cnc(N)nc2N)cc(/C=C/C(=O)N2N=Cc3ccccc3C2c2ccccc2)c1OCCN1CCOCC1 (stereo not shown) | 6.77 | < 4.80 | ≤ 32
COc1cc(Cc2cnc(N)nc2N)cc(OC)c1OC [Trimethoprim, reference compound] | – | – | > 2000
